Assay results published in patent publication US9434743B2, “Indazole derivatives” (TAKEDA PHARMACEUTICAL COMPANY LIMITED, priority 2012, dated 2016).

Legend:
human MetAP2 enzyme [1] = molecular target: T1, human MetAP2 enzyme (Homo sapiens, UniProt P50579); experiment: MetAP2 enzyme assay, enzyme complexed with manganese ions; conditions: MetAP2 Mn pIC50, MetAP2 enzyme complexed with manganese ions; Met-AMC substrate at Km
human MetAP2 enzyme [2] = molecular target: T1, human MetAP2 enzyme; experiment: MetAP2 enzyme assay, enzyme complexed with cobalt ions; conditions: MetAP2 Co pIC50, MetAP2 enzyme complexed with cobalt ions; Met-AMC substrate at Km
Procedure: DNA encoding the full-length sequence of human MetAP2 enzyme is amplified by PCR and cloned into a pFastBac expression vector (Invitrogen). Recombinant baculovirus incorporating the MetAP2 construct is generated by transposition using the Bac-to-Bac system (Invitrogen). The expression of recombinant protein is carried out by infection of Spodoptera frugiperda Sf9 cells (Invitrogen) in 5 L Wave Bioreactors (Wave Biotech). Recombinant protein is isolated from cellular extracts by binding to an SP Hitrap Fast Flow or SP Sepharose (Sigma) column, and the protein is eluted using a NaCl gradient. Partially purified extracts of MetAP2 are further purified by an AKTA FPLC over a Superdex-200 column (GE). The purity of MetAP2 protein is determined on denaturing SDS-PAGE gel.
The results for each well are expressed as percent inhibition and calculated using the equation:

T1 sequence (P50579 whole entry): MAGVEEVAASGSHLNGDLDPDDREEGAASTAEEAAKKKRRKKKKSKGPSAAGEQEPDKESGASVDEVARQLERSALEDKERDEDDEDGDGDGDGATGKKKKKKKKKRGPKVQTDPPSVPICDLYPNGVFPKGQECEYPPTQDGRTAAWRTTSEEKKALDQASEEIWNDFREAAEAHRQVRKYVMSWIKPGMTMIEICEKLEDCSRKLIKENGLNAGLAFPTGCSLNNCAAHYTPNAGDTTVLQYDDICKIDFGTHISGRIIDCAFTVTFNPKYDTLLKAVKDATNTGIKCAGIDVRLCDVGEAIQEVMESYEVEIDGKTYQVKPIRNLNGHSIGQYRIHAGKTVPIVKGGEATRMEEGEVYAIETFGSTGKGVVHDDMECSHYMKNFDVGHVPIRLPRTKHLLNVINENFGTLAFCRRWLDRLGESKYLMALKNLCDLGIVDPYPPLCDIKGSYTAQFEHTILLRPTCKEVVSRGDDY

| Compound | IC50 (human MetAP2 enzyme [1]) | IC50 (human MetAP2 enzyme [2]) |
| --- | --- | --- |
| Fc1c(-c2cc(C(F)(F)F)cc3[nH]ncc23)ccnc1N1CCOCC1 [Example 65, 4-(3-fluoro-4-(6-(trifluoromethyl)-1H-indazol-4-yl)pyridin-2-yl)morpholine] | 12.6 nM | 15.8 nM |
| FC(F)(F)c1cc(-c2cccc(-c3cc[nH]n3)c2)c2cn[nH]c2c1 [Example 61, 4-(3-(1H-pyrazol-3-yl)phenyl)-6-(trifluoromethyl)-1H-indazole] | 39.8 nM | 158 nM |
| O=C(NCC(O)CO)c1c[nH]c(=O)c(-c2cc(C(F)(F)F)cc3[nH]ncc23)c1 (stereo not drawn) [Example 337, N-(2,3-dihydroxypropyl)-6-oxo-5-(6-(trifluoromethyl)-1H-indazol-4-yl)-1,6-dihydropyridine-3-carboxamide] | 15.8 nM | 398 nM |
| Cc1nn(CC(=O)NCCO)c(C)c1-c1cc(C(F)(F)F)cc2[nH]ncc12 [Example 386, 2-(3,5-dimethyl-4-(6-(trifluoromethyl)-1H-indazol-4-yl)-1H-pyrazol-1-yl)-N-(2-hydroxyethyl)acetamide] | 12.6 nM | 63.1 nM |
| O=C(NC1CC1)c1c[nH]c(=O)c(-c2cc(C(F)(F)F)cc3[nH]ncc23)c1 [Example 332, N-cyclopropyl-6-oxo-5-(6-(trifluoromethyl)-1H-indazol-4-yl)-1,6-dihydropyridine-3-carboxamide] | 12.6 nM | 316 nM |
| COCCOc1ccc(-c2cc(C(F)(F)F)cc3[nH]ncc23)c(C)n1 [Example 362, 4-(6-(2-methoxyethoxy)-2-methylpyridin-3-yl)-6-(trifluoromethyl)-1H-indazole] | 15.8 nM | 39.8 nM |
| Cn1ccnc1-c1cc(C(F)(F)F)cc2[nH]ncc12 [Example 147, 4-(1-methyl-1H-imidazol-2-yl)-6-(trifluoromethyl)-1H-indazole] | 126 nM | 5010 nM |
| COc1ccc(C(=O)N2CC(O)C2)cc1-c1cc(C(F)(F)F)cc2[nH]ncc12 [Example 328, (3-hydroxyazetidin-1-yl)(4-methoxy-3-(6-(trifluoromethyl)-1H-indazol-4-yl)phenyl)methanone] | 12.6 nM | 12.6 nM |
| CS(=O)(=O)c1cncc(-c2cc(C(F)(F)F)cc3[nH]ncc23)c1 [Example 105, 4-(5-(methylsulfonyl)pyridin-3-yl)-6-(trifluoromethyl)-1H-indazole] | 10 nM | 316 nM |
| FC(F)(F)c1cc(-c2cccc3c2OCO3)c2cn[nH]c2c1 [Example 27, 4-(benzo[d][1,3]dioxol-4-yl)-6-(trifluoromethyl)-1H-indazole] | 15.8 nM | 126 nM |
| FC(F)(F)c1cc(-c2cnc(-n3ccnc3)nc2)c2cn[nH]c2c1 [Example 217, 4-(2-(1H-imidazol-1-yl)pyrimidin-5-yl)-6-(trifluoromethyl)-1H-indazole] | 10 nM | 158 nM |
| Cc1ccc(C(=O)N2CCC(O)CC2)cc1-c1cc(C(F)(F)F)cc2[nH]ncc12 [Example 372, (4-hydroxypiperidin-1-yl)(4-methyl-3-(6-(trifluoromethyl)-1H-indazol-4-yl)phenyl)methanone] | 31.6 nM | 100 nM |
| COC(=O)c1c[nH]c(=O)c(-c2cc(C(F)(F)F)cc3[nH]ncc23)c1 [Example 265, methyl 6-oxo-5-(6-(trifluoromethyl)-1H-indazol-4-yl)-1,6-dihydropyridine-3-carboxylate] | 10 nM | 100 nM |
| Cc1c(-c2cc(C(F)(F)F)cc3[nH]ncc23)cnn1C [Example 79, 4-(1,5-dimethyl-1H-pyrazol-4-yl)-6-(trifluoromethyl)-1H-indazole] | 10 nM | 25.1 nM |
| N#Cc1ccccc1-c1cc(C(F)(F)F)cc2[nH]ncc12 [Example 52, 2-(6-(trifluoromethyl)-1H-indazol-4-yl)benzonitrile] | 12.6 nM | 126 nM |
| NC(=O)c1ccc(-c2cc(C(F)(F)F)cc3[nH]ncc23)c(F)c1 [Example 321, 3-fluoro-4-(6-(trifluoromethyl)-1H-indazol-4-yl)benzamide] | 15.8 nM | 20 nM |
| Cc1c(-c2cc(C(F)(F)F)cc3[nH]ncc23)ccc(=O)n1CC#N [Example 405, 2-(6-methyl-2-oxo-5-(6-(trifluoromethyl)-1H-indazol-4-yl)pyridin-1(2H)-yl)acetonitrile] | 10 nM | 79.4 nM |

Continued, values first:

| IC50 (human MetAP2 enzyme [1]) | IC50 (human MetAP2 enzyme [2]) | Compound |
| --- | --- | --- |
| 7.94 nM | 31.6 nM | CC(=O)Nc1ccc(-c2cc(C(F)(F)F)cc3[nH]ncc23)c(C)n1 [Example 178, N-(6-methyl-5-(6-(trifluoromethyl)-1H-indazol-4-yl)pyridin-2-yl)acetamide] |
| 5.01 nM | 100 nM | Nc1ncccc1-c1cc(C(F)(F)F)cc2[nH]ncc12 [Example 78, 3-(6-(trifluoromethyl)-1H-indazol-4-yl)pyridin-2-amine] |
| 5.01 nM | 15.8 nM | CNC(=O)c1ccc(OC)c(-c2cc(C(F)(F)F)cc3[nH]ncc23)c1 [Example 181, 4-methoxy-N-methyl-3-(6-(trifluoromethyl)-1H-indazol-4-yl)benzamide] |
| 7.94 nM | 20 nM | Cc1cc(S(N)(=O)=O)ccc1-c1cc(C(F)(F)F)cc2[nH]ncc12 [Example 186, 3-methyl-4-(6-(trifluoromethyl)-1H-indazol-4-yl)benzenesulfonamide] |
| 10 nM | 100 nM | FC(F)(F)c1cc(-c2ccncc2)c2cn[nH]c2c1 [Example 14, 4-(pyridin-4-yl)-6-(trifluoromethyl)-1H-indazole] |
| 5.01 nM | 50.1 nM | Cc1nn(CC(=O)NCCO)cc1-c1cc(C(F)(F)F)cc2[nH]ncc12 [Example 279, N-(2-hydroxyethyl)-2-(3-methyl-4-(6-(trifluoromethyl)-1H-indazol-4-yl)-1H-pyrazol-1-yl)acetamide] |
| 7.94 nM | 6.31 nM | Cc1cc(Cn2nc(CO)c(-c3cc(C(F)(F)F)cc4[nH]ncc34)c2C)on1 (single isomer, unassigned) [Example 411, (5-methyl-1-((3-methylisoxazol-5-yl)methyl)-4-(6-(trifluoromethyl)-1H-indazol-4-yl)-1H-pyrazol-3-yl)methanol] |
| 5.01 nM | 31.6 nM | FC(F)(F)c1cc(-c2ccc3scnc3c2)c2cn[nH]c2c1 [Example 107, 5-(6-(trifluoromethyl)-1H-indazol-4-yl)benzo[d]thiazole] |
| 3.16 nM | 50.1 nM | O=C(NCCO)c1ccc(-c2cc(C(F)(F)F)cc3[nH]ncc23)cc1F [Example 109, 2-fluoro-N-(2-hydroxyethyl)-4-(6-(trifluoromethyl)-1H-indazol-4-yl)benzamide] |
| 7.94 nM | 200 nM | Cn1cc(C(=O)NC2CC2)cc(-c2cc(C(F)(F)F)cc3[nH]ncc23)c1=O [Example 357, N-cyclopropyl-1-methyl-6-oxo-5-(6-(trifluoromethyl)-1H-indazol-4-yl)-1,6-dihydropyridine-3-carboxamide] |
| 5.01 nM | 316 nM | Cn1cc(C(=O)NCC(F)F)cc(-c2cc(C(F)(F)F)cc3[nH]ncc23)c1=O [Example 355, N-(2,2-difluoroethyl)-1-methyl-6-oxo-5-(6-(trifluoromethyl)-1H-indazol-4-yl)-1,6-dihydropyridine-3-carboxamide] |
| 3.16 nM | 100 nM | COc1ncc(-c2cc(C(F)(F)F)cc3[nH]ncc23)cn1 [Example 246, 4-(2-methoxypyrimidin-5-yl)-6-(trifluoromethyl)-1H-indazole] |
| 5.01 nM | 25.1 nM | NC(=O)c1ccc(-c2cc(C(F)(F)F)cc3[nH]ncc23)cc1 [Example 7, 4-(6-(trifluoromethyl)-1H-indazol-4-yl)benzamide] |
| 6.31 nM | 79.4 nM | O=C(c1cccc(-c2cc(C(F)(F)F)cc3[nH]ncc23)c1)N1CCCC1 [Example 85, pyrrolidin-1-yl(3-(6-(trifluoromethyl)-1H-indazol-4-yl)phenyl)methanone] |
| 6.31 nM | 79.4 nM | C[C@H](O)CNc1ncc(-c2cc(C(F)(F)F)cc3[nH]ncc23)cn1 [Example 208, (S)-1-(5-(6-(trifluoromethyl)-1H-indazol-4-yl)pyrimidin-2-ylamino)propan-2-ol] |
| 3.98 nM | 31.6 nM | N#Cc1ccc(CO)c(-c2cc(C(F)(F)F)cc3[nH]ncc23)c1 [Example 140, 4-(hydroxymethyl)-3-(6-(trifluoromethyl)-1H-indazol-4-yl)benzonitrile] |
| 6.31 nM | 39.8 nM | NS(=O)(=O)c1ccc(-c2cc(C(F)(F)F)cc3[nH]ncc23)c(F)c1 [Example 342, 3-fluoro-4-(6-(trifluoromethyl)-1H-indazol-4-yl)benzenesulfonamide] |
| 7.94 nM | 25.1 nM | COCC(=O)Nc1ccc(-c2cc(C(F)(F)F)cc3[nH]ncc23)c(C)n1 [Example 258, 2-methoxy-N-(6-methyl-5-(6-(trifluoromethyl)-1H-indazol-4-yl)pyridin-2-yl)acetamide] |
| 7.94 nM | 100 nM | O=S(=O)(c1ccc(-c2cc(C(F)(F)F)cc3[nH]ncc23)cc1)N1CCOCC1 [Example 225, 4-(4-(6-(trifluoromethyl)-1H-indazol-4-yl)phenylsulfonyl)morpholine] |
| 5.01 nM | 63.1 nM | COc1cc(-c2cc(C(F)(F)F)cc3[nH]ncc23)c(OC)nn1 [Example 248, 4-(3,6-dimethoxypyridazin-4-yl)-6-(trifluoromethyl)-1H-indazole] |
| 6.31 nM | 200 nM | Cc1c(C(=O)N2CCN(C)CC2)cc(-c2cc(C(F)(F)F)cc3[nH]ncc23)c(=O)n1C [Example 401, 1,6-dimethyl-5-(4-methylpiperazine-1-carbonyl)-3-(6-(trifluoromethyl)-1H-indazol-4-yl)pyridin-2(1H)-one] |
| 6.31 nM | 63.1 nM | CS(=O)(=O)c1ccc(-c2cc(C(F)(F)F)cc3[nH]ncc23)cc1 [Example 347, 4-(4-(methylsulfonyl)phenyl)-6-(trifluoromethyl)-1H-indazole] |
